Earlier results, collected in PMC6270667, “Loddigesiinols G–J: α-Glucosidase Inhibitors from Dendrobium loddigesii” (Molecules, 2014).

Molecular target: α-glucosidase (Saccharomyces cerevisiae, UniProt P53341)
Parameters: method as in PMID 16478243
Conditions: reported in the literature

α-glucosidase, sequence (P53341 whole entry): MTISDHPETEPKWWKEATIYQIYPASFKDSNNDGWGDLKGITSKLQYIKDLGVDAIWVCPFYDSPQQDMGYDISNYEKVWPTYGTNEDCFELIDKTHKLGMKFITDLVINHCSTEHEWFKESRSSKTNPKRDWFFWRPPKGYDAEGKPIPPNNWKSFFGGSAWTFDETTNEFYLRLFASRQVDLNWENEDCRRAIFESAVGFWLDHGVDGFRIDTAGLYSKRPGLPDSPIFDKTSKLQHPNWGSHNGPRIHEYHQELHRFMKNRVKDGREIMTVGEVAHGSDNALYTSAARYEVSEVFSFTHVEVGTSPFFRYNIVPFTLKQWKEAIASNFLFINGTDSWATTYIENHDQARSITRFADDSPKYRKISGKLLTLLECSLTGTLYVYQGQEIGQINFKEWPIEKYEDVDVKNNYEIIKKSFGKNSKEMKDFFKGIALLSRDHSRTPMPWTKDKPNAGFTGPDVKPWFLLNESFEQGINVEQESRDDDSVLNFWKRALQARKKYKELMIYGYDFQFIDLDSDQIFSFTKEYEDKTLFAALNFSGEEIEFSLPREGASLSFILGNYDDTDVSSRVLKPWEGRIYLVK

## Oc1ccc(/C=C/c2cc(O)cc(O)c2)cc1 [trans-Resveratrol, trans-resveratrol]
  α-glucosidase inhibitory effect compared with the clinical drug acarbose: more potent inhibitory effect than the clinical drug acarbose
